Data set [1] deals with non-bacterial prostatitis. As to the kind of experiment: Therapeutic effects on non-bacterial prostatitis (Xiaozhiling injection into prostate). More on the design: Histopathological score of prostatitis, Overall Average X ± SD: scale not given here. The data set is classed as in vivo, SD rats. The method, then: Fifty-five male SD rats were randomly divided into 6 groups, 9 each, except the negative control group for which 10 animals were used. All animals from group 1 to 6 were anesthetized by injection of ketamine under sterile conditions and incised around 1.5 cm with a sterilized surgery scalpel at middle of abdomen. Animals in Group 1 were injected penicillin to prevent infection, and given distill water, 10 ml/kg, once a day, 5 times a week for 5 weeks. Groups from 2 to 6 injected 25% Xiaozhiling into left and right lobes of prostate, 0.1 ml for each lobe and sew the muscle and skin with #1 silk thread. The animals were then given penicillin to prevent infectious. Group 2 was served as negative control group in which animals were treated with distill water by gavage 24 hrs after the Xiaozhiling injection, once a day, 5 times a week for 5 weeks. Group 3 was served as positive control group in which animals were treated with GENURIN by gavage 24 hrs after the Xiaozhiling injection at dose of 60 mg/kg, once a day, 5 times a week (escaping weekend) for 5 weeks. […] On the last dosing day, urine samples from different groups that covered periods of 1, 2 and 3 hrs were collected.
Twenty-four hrs after the last dose, the animals were euthanized and weighed. Volume and weight of prostate were measured. The averages of the prostate weight/volume and organ coefficient (average weight of prostate/average of body weight) were calculated, and statistical analysis performed (t test).
(§1) Prostate tissues of animals from different groups were embedded with paraffin. The tissue sections were stained with H&E for histpathological examination by an anatomical pathologist.

The test system of data set [2] is androgen-induced BPH. The data set can be described thus: Therapeutic effects on BPH: Test Two (castrated rats, testosterone propionate; weights and histopathology). The data set is classed as in vivo, SD rats. Further details: Histopathological score of BPH, Average X ± SD: scale not given here. On the procedure:
Thirty-six male SD rats were randomly divided into 4 groups, nine each. Group 1 was served as blank control group (pseudo-surgery control group) in which animals were under the same surgical procedures except no testis was sectioned and fed normally. Groups from 2 to 4 were served as treatment groups in which all animals were anesthetized using ketamine and castrated by removing both testises under sterile conditions. After the surgery, the penicillin was injected to prevent the animals from infection. One week later, the testosterone propionate was injected subcutaneously at dose of 5 mg/kg, once a day for a month. […] Group 3 was served as positive control group in which animals were given Proscar by gavage at dose of 0.1 mg/rat/day for a month beginning on the same day that the testosterone propionate was injected.
Twenty-four hrs after the last dose, the animals were euthanized and weighed. Volume and weight of prostate were measured. The averages of prostate volume/weight and organ coefficient (average weight of prostate/average of body weight) were calculated, and statistical analysis performed (t test).
as §1

The test system of data set [3] is BPH. As to the kind of experiment: Therapeutic effects on BPH: Test One (castrated rats, testosterone propionate). As to conditions: estradiol 0.1 mg/rat s.c., one month. The data set is classed as in vivo, SD rats. On the procedure:
Sixty male SD rats were randomly divided into 6 groups, ten each. The animals were anesthetized using ketamine and castrated by removing testis under sterile conditions. After the surgery, the penicillin was injected to prevent the animals from infection. One week later, the testosterone propionate was injected subcutaneously at dose of 1 mg/rat for a month, once a day. Group 1 was served as a negative control group, and the animals of group 1 were given saline orally without any active pharmaceutical ingredient for a month beginning on the same day the testosterone propionate was injected. Group 2 was served as positive control group in which animals were given estradiol subcutaneously at a dose of 0.1 mg/rat for a month beginning on the same day the testosterone propionate was injected. Groups from 3 to 6 was served as drug treatment groups in which animals were given tested articles on the same day the testosterone propionate was injected.
Twenty-four hrs after the last dosage, the animals were euthanized and weighed. Volume and weight of prostate were measured. The averages of volume/weight and organ coefficient (average weight of prostate/average of body weight) were calculated, and statistical analysis performed (t test).

Data set [4] concerns human androgen independent prostate cancer PC-3 cells. The data set can be described thus: Xenograft of PC-3 in nude mice. As to conditions: for Inhibition of PC-3 tumor growth: at terminal, diet containing 8 μM/g for 30 days. The data set is classed as in vivo, BALB/c nude mice. An excerpt: Immunodeficient BALB/c nude mice, male, 5 weeks old, were purchased from Animal Center, Chinese Academy of Sciences, Shanghai, China. The animals were housed in an SPF animal lab. Human androgen independent prostate cancer PC-3 cells, in the form of a pellet (approximately 1×10^6 cells per animal), were mixed with a 50% volume of Matrigel and implanted s.c. in the flank of the animal. Twenty-four hrs after the transplant, the mice were randomly divided into two groups, eight animal each. One group served as untreated control and fed with regular AIN76 diet, and another one as treatment group in which AIN76 diet containing 8 μM/g of PEITC-NAC was provided. The animals were treated for 30 days, and tumor incidence and size were measured at day 7, 10, 22. Twenty-four hrs after the last administration, animals were euthanized, and body and tumors were weighted. Western blot was used to follow the possible change of AR expression.

Data set [5] has as its system GSTP1. The data set can be described thus: Western blot to detect GSTP1 protein in LNCaP cells. It is filed as cell-based, human. Particulars: LNCaP cells exposed 24 hrs. On the procedure:
Western blot to detect GSTP1 protein (FIG. 1): […] The cells were harvested, washed and total cellular proteins were extracted as described previously (Wang, […], et al. […] Cancer Res 61(20): 7544-51, 2001). Fifty μg cellular extracts were separated on a SDS-PAGE, electro-transferred to nitrocellulose filters, and immunoblotted initially with antibodies against GSTP1. The same membranes were stripped and re-probed with β-actin for loading control. The result was recorded by ECL films.

The subject of data set [6] is xenograft B16 mouse tumor. As to conditions: CTX 20 mg/kg/d i.p., 15 days. The method, then:
The B16 mouse melanoma cells at exponential growth phase were suspended in PBS. […] Adjusted the suspension to a cell concentration of approximately 1×10^7/ml. 0.2 ml of the suspension were transplanted subcutaneously into right axillary subcutis for passaging.
Under sterile condition the xenograft B16 mouse tumor in mice was stripped from axillary subcutis. After cutting by scissors, the tumor with saline (1:3) was ground in a glass homogenizer. Monocell suspension was made with saline. […] Then adjusted the suspension to a cell density of approximately 1×10^7/ml with saline. 0.2 ml were transplanted subcutaneously into right axillary subcutis of each mouse. After transplanting, randomly divided the mouse into 5 groups, 12 each.
Tumors were taken out, sizes and weights were measured, and the percent of inhibitions were calculated.

Where [7] appears, read: GENURIN 60 mg/kg gavage, 5 weeks.
The mark [8] stands for this setting: GENURIN 60 mg/kg, last dosing day.
Setting [9] is: Proscar 0.5 mg/kg gavage, one month.

Where a name gives a salt, the structure may show the parent alone.

With `Cc1c(-c2ccccc2)oc2c(C(=O)OCCN3CCCCC3)cccc2c1=O` [GENURIN, Flavoxate Hydrochloride, reference compound], in data set [1] (setting [7]), the “Average Volume of Prostate” value is on record as 0.69 ± 0.10 cm^3, the “Average Weight of Prostate” value amounted to 0.71 ± 0.09 g, the “Inhibition of Organ-coefficient” value was determined as 24.62% and the “Organ Coefficient” value was 0.196 ± 0.03 %. Moreover, in data set [1] (GENURIN 60 mg/kg, 9 animals), the “Bleeding: no. of animals with score 0” value is given as 6, the “Bleeding: no. of animals with score +” value is listed as 3, the “Bleeding: no. of animals with score ++” value was determined as 0 and the “Bleeding: no. of animals with score +++” value stood at 0. Further, in data set [1] (GENURIN 60 mg/kg, 9 animals), the “Chronic Inflammatory Infiltration: no. of animals with score 0” value came out at 5, the “Chronic Inflammatory Infiltration: no. of animals with score +” value came out at 4, the “Chronic Inflammatory Infiltration: no. of animals with score ++” value worked out at 0 and the “Chronic Inflammatory Infiltration: no. of animals with score +++” value is 0. In data set [1] (GENURIN 60 mg/kg, 9 animals), the “Congestion: no. of animals with score 0” value worked out at 4, the “Congestion: no. of animals with score +” value was found to be 5, the “Congestion: no. of animals with score ++” value is 0 and the “Congestion: no. of animals with score +++” value was determined as 0. In addition, in data set [1] (GENURIN 60 mg/kg, 9 animals), the “Edema: no. of animals with score 0” value came out at 6, the “Edema: no. of animals with score +” value stood at 2, the “Edema: no. of animals with score ++” value turned out to be 1 and the “Edema: no. of animals with score +++” value stood at 0. For the same molecule, in data set [1] (GENURIN 60 mg/kg, 9 animals), the “Fibrous Exudation: no. of animals with score 0” value was 8, the “Fibrous Exudation: no. of animals with score +” value amounted to 1, the “Fibrous Exudation: no. of animals with score ++” value is reported as 0 and the “Fibrous Exudation: no. of animals with score +++” value was 0. Also, in data set [1] (GENURIN 60 mg/kg, 9 animals), the “Histopathological score of prostatitis, Overall Average X ± SD” value was determined as 1.83 ± 0.75; the “Hyperblastosis: no. of animals with score 0” value amounted to 8; the “Hyperblastosis: no. of animals with score +” value turned out to be 1; the “Hyperblastosis: no. of animals with score ++” value was 0. Further, in data set [1] (GENURIN 60 mg/kg, 9 animals), the “Hyperblastosis: no. of animals with score +++” value is 0, the “Inflammatory Infiltration: no. of animals with score 0” value is given as 7, the “Inflammatory Infiltration: no. of animals with score +” value is given as 2 and the “Inflammatory Infiltration: no. of animals with score ++” value is on record as 0. In addition, in data set [1] (GENURIN 60 mg/kg, 9 animals), the “Inflammatory Infiltration: no. of animals with score +++” value was found to be 0. Also, in data set [1] (setting [8]), the “urine, 1 h Period” value was 6.2 ± 1.3 mL; the “urine, 2 h Period” value worked out at 7.9 ± 1.9 mL; the “urine, 3 h Period” value came to 8.8 ± 1.2 mL.
As for `CC(C)(C)NC(=O)[C@H]1CC[C@H]2[C@@H]3CC[C@H]4NC(=O)C=C[C@]4(C)[C@H]3CC[C@]12C` [Proscar], in data set [2] (Proscar 0.5 mg/kg (0.1 mg/rat/day) gavage, one month), the “Average Body Weight” value was determined as 340 ± 30.5 g. In data set [2] (setting [9]), the “Average Volume of Prostate” value amounted to 1.61 ± 0.16 cm^3, the “Average Weight of Prostate” value was found to be 1.30 ± 0.12 g, the “Inhibition of Organ Coefficient” value is given as 11.63% and the “Organ Coefficient” value was determined as 0.38 ± 0.05%. Also, in data set [2] (Proscar, 9 animals), the “Acinar Density: no. of animals with score 0” value is listed as 1, the “Acinar Density: no. of animals with score +” value was determined as 2, the “Acinar Density: no. of animals with score ++” value is 6 and the “Acinar Density: no. of animals with score +++” value stood at 0. Also, in data set [2] (Proscar, 9 animals), the “Connective tissue proliferation, or papillary hyperplasia: no. of animals with score 0” value is 8; the “Connective tissue proliferation, or papillary hyperplasia: no. of animals with score +” value worked out at 1; the “Connective tissue proliferation, or papillary hyperplasia: no. of animals with score ++” value is on record as 0; the “Connective tissue proliferation, or papillary hyperplasia: no. of animals with score +++” value is reported as 0. In data set [2] (Proscar, 9 animals), the “Enlargement of Lumen of Gland: no. of animals with score 0” value is reported as 3, the “Enlargement of Lumen of Gland: no. of animals with score +” value is reported as 3, the “Enlargement of Lumen of Gland: no. of animals with score ++” value is on record as 3 and the “Enlargement of Lumen of Gland: no. of animals with score +++” value was 0. Also, in data set [2] (Proscar, 9 animals), the “Histopathological score of BPH, Average X ± SD” value was determined as 3.33 ± 1.11; the “Secretions of Gland: no. of animals with score 0” value worked out at 5; the “Secretions of Gland: no. of animals with score +” value was determined as 2; the “Secretions of Gland: no. of animals with score ++” value was determined as 2. Moreover, in data set [2] (Proscar, 9 animals), the “Secretions of Gland: no. of animals with score +++” value stood at 0. Moreover, in data set [2] (Proscar, FIG. 6.3), the “lumen of prostatic gland and secretary materials in the lumen, versus untreated BPH tissues (typical slide)” value is reported as “reduced”. Besides, the “density of prostatic acinars, versus untreated BPH tissues (typical slide)” value in data set [2] (Proscar, FIG. 6.4) is recorded as “reduced”.
In the case of `C[C@]12CC[C@@H]3c4ccc(O)cc4CC[C@H]3[C@@H]1CC[C@@H]2O` [estradiol, reference compound], in data set [3], the “Average Weight of Prostate” value is given as 0.73 grams and the Organ Coefficient worked out at 0.23%.
For “N-acetylcysteine conjugate of phenethyl isothiocyanate [PEITC-NAC]”, the “Inhibition of PC-3 tumor growth” value in data set [4] is 53.3%.
In the case of `CC(=O)NC(CSC(=S)NCCc1ccccc1)C(=O)O` (centres unmarked) [PEITC-NAC, N-acetylcysteine conjugate of phenethyl isothiocyanate], the “expression of GSTP1 (Western blot)” value in data set [5] is reported as “effectively induce”. Further, the Incidence in data set [4] (at terminal (30 days)) is 87.5%; in data set [4] (day 7), 75%; in data set [4] (day 10), 75%; in data set [4] (day 22), 87.5%. In addition, the “No. of Animals with Tumor” value in data set [4] (at terminal (30 days)) came out at 7; in data set [4] (day 7 after tumor implantation, diet containing 8 μM/g, 8 animals) it was 6; in data set [4] (day 10), 6; in data set [4] (day 22), 7. The “No. of Animals without Tumor” value in data set [4] (at terminal (30 days)) was found to be 1; in data set [4] (day 7), 2; in data set [4] (day 10), 2; in data set [4] (day 22), 1. In data set [4], the “Inhibition of PC-3 tumor growth” value amounted to 53.3%.
In general, Inhibition refers to the change of the read-out against control, counted positive when it falls. On to `O=P1(N(CCCl)CCCl)NCCCO1` (centres unmarked) [CTX, Cyclophosphamide, reference compound], for which, in data set [6], the “Average of Tumor Weight” value came out at 0.76 ± 0.41 g, the “Changes in Body Weight” value stood at 5.07 ± 2.64 g and the Inhibition is given as 66.23%.

The values above are taken from US8410170B2, “Use of isothiocyanates compounds in treating prostatic diseases and skin cancer” (Wuxi JC Pharmaceutical Technology Co., Ltd., priority 2005, dated 2013).
